# Source: patent publication US9388405B2, “Method for identifying a subpopulation of mammalian cells with distinctive ribosome translation profiles” (priority 2009, dated 2016)
# How the values were obtained:
# Type in all cases: cell-based, human
# [1] = tested on: MCF7 CMV-fLuc subclones #44 and #48; assay: PKC activator dose response, cap-dependent translation (fLuc); details: single-Toxin
# Description: Following 6 hr exposure to the Single-Toxin TPA assay, cells were lysed and fLuc protein activity measured using a standard microplate reader assay. The raw values were averaged and expressed as the ratio of treated to untreated samples (Fold Induction).
# Dashed lines represent translational response levels produced by a 100 nM TPA Single-Toxin assay. The Bryostatin 1 concentrations (top panel) encompassed the TPA concentrations used in FIG. 27A. […] The Bryostatin 2 dose response curve (bottom panel) employed higher drug concentrations (the maximal tested dose was 5× the largest TPA and Bryostatin 1 amounts). At the highest tested dose (2.5 uM), Bryostatin 2 produced fLuc activity consistent with the level observed with 100 nM TPA.
# In addition to measuring cap-dependent and cap-independent translational effects, Class-specific translational activity and toxin-defined actions, the previously described materials and methods allow for a variety of applications designed to detect and characterize agents and processes that regulate ribosome activity. In this example, comparative dose response assays were used to detect cap-dependent and cap-independent translational regulation in MCF7 cells. The basis for this application was the observation that distinct translational responses are produced by compounds at different doses. When an assortment of compounds act on a common molecular target, they can be grouped into a genus of related drugs. By comparing individual species of a compound genus over a defined dose range, differences in translational regulation can be defined. Furthermore, these translational differences can often be linked to biological differences.
# In this example (FIG. 27), the three PKC activators produced similar dose response trends in cap-dependent assays. […] However, macrolide lactones produced translational increases that were generally 60-70% of the TPA translational response (FIG. 27B). In fact, a 25 fold increase in Bryostatin 2 concentration (2.5 uM) was needed to produce a translational magnitude similar to the 100 nM TPA assay (FIG. 27B).
# [2] = tested on: MCF7 mTRdm-fLuc subclones #8, #27, and #45; assay: PKC activator dose response, cap-independent TR translation (fLuc); details: single-Toxin
# Description: Following 6 hr culture with a TPA single-Toxin assay, cells were lysed and fLuc protein activity measured using a standard microplate reader assay. The plate reader values were averaged and expressed as the ratio of treated to untreated samples (Fold Induction).
# As with FIG. 27B, dashed lines represent translational response levels achieved by the 100 nM TPA assay in each cell line. […] A further difference between the cap-dependent and cap-independent assays was the observation that increased Bryostatin 2 concentrations (5× the maximal TPA dose) never produced fLUC activity equivalent to the 100 nM TPA assay. Thus, the Toxin Assay procedure can detect a statistically significant difference in cap-dependent and cap-independent translation in compounds that activate PKC activity.
# In the cap-independent assays, a similar dose response trend was observed over a 1 nM to 250 nM range with a translational peak at a 100 nM dose. However, the magnitude of the Bryostatin increases were generally 30% of 100 nM TPA response.
# [3] = tested on: HEK293 CMV-fLUC #3, hTRdm-fLUC #13 and mTRdm-fLUC #45 subclones; assay: Translation elongation inhibitor single-Toxin and two-Toxin (100 nM TPA) dose response; details: for low dose sufficient to reduce reporter protein levels below untreated control cells: HEK293 CMV-fLUC #3 and mTRdm-fLUC #45 subclones; for reporter protein level versus untreated control: 25 uM inhibitor + 100 nM TPA, HEK293 mTRdm-fLUC #45 subclone
# Description: At sufficiently large doses, these inhibitors immediately stop protein translation, and the resulting protein turnover reduces reporter protein levels below untreated cell levels (<100% control).
# For the HEK293 CMV-fLUC #3 (top panel) and mTRdm-fLUC #45 (bottom panel) subclones, anisomycin and emetine antagonized the TPA response at the lowest tested dose (10 nM) and reduced reporter protein levels 50-300% compared to the TPA single-Toxin assay. This contrasted with puromycin, which required a 250 nM concentration (25×) to initially reduce protein synthesis below the TPA Single-Toxin assay level in all three cell lines. […] For example, the CMV-fLUC #3 subclone required a 2.5 uM puromycin dose to correlate with the other inhibitors, which contrasted with hTRdm-fLUC #13 and mTRdm-fLUC #45 subclones which needed a 25 uM puromycin concentration (a 10× increase).
# In this example (FIG. 33), single-Toxin and two-Toxin dose responses were used to define translational responses associated with translation inhibitors. Inhibitors of protein biosynthesis generally act by interfering with translational initiation (assembly of the components or structures required for translation) or elongation (enzymatic process of peptide synthesis and chain movement within the ribosome). A variety of translational inhibitors exist that affect each of these stages. Due to the fact that cap-dependent and cap-independent translation display distinct translational initiation mechanisms, this example focused on translational inhibitors associated with peptide elongation. Since the majority of these enzymatic processes are common to cap-dependent and cap-independent translation, any significant differences in chain elongation reflect differences in peptide synthesis.
# A dose response single-Toxin assay was used to examine translation regulation in HEK293 cells (FIG. 33A). […] For example, translation inhibition stops reporter protein production, and protein turnover reduces reporter activity below the basal level. In this example, a 250 nM concentration of each inhibitor was sufficient to reduce protein synthesis below control cell levels in cap-dependent and cap-independent assays (FIG. 33A). Furthermore, any dose above 2.5 uM produced only minimal additional reductions in reporter protein activity supporting the theory that translation in these assays had ceased.
# In a second effort, a two-Toxin dose response assay was performed by varying the concentration of the elongation inhibitors in combination with the 100 nM TPA activator (FIG. 33B). This combinatorial assay was designed to examine protein synthesis in stimulated cells preferentially translating the TR transcript. As in the single-Toxin assays, cap-dependent translation was arrested by 2.5 uM puromycin (top panel) which contrasted with the cap-independent assays where a 10× increase in puromycin concentration (25 uM) was needed to prevent new protein synthesis. However even at this highest tested dose, immediate translation inhibition was not observed in any cell line (FIG. 33C).
# [4] = tested on: MCF7 CMV-fLuc subclone #65; assay: Topoisomerase 1 inhibitor single-Toxin and two-Toxin (100 nM TPA) dose response, cap-dependent; details: 10 nM to 10 uM; for dose at peak of fLuc protein expression: 6 hr; for dose at peak of fLuc protein expression / effect on TPA-specific translational response: cap-dependent; for effect on TPA-specific translational response: two-Toxin with constant 100 nM TPA
# Description: FIG. 28A illustrates a dose response assay of the MCF7 CMV-fLuc subclone #65 treated with varying doses (10 nM to 10 uM range) of the following Topoisomerase 1 inhibitors: camptothecin, topotecan, irinotecan, and rubitecan. Following a 6 hr incubation in a single-Toxin assay, cells were lysed and fLuc protein activity measured using a standard microplate reader assay. The plate reader values were averaged and expressed as the ratio of treated to untreated samples (Fold Induction). The dashed line represents the level of translational response in untreated cell samples.
# FIG. 28B illustrates the use of a Combinatorial Assay to examine the effects of Topoisomerase 1 inhibitors on cap-dependent translation. A series of dose response assays were performed on the MCF7 CMV-fLuc subclone #65 using varying doses of the Topoisomerase 1 inhibitors (10 nM to 10 uM range) in a Two-Toxin assay with a constant 100 nM TPA dose. The plate reader values were averaged and expressed as the ratio of treated to untreated samples (Fold Induction). The dashed line represents the level of translational response in untreated samples.
# FIG. 28A illustrates a cap-dependent dose response assay of MCF7 cells treated with varying dosages (10 nM to 10 uM range) of the following TopoI inhibitors: camptothecin, topotecan, irinotecan, and rubitecan. […] While the altered irinotecan response might have been predicted based on its metabolic requirements, the lack of topotecan action on cap-dependent translation in the single-Toxin assays was unexpected.
# Since similar doses inhibited translation in the single-Toxin assays (FIG. 28A), this effect might have represented a direct effect on translation.
# [5] = tested on: MCF7 mTRdm-fLuc subclone #27; assay: Topoisomerase 1 inhibitor single-Toxin and two-Toxin (100 nM TPA) dose response, cap-independent; details: 10 nM to 10 uM; for effect on cap-independent translation: single-Toxin; for effect on TPA activity: two-Toxin with 100 nM TPA
# Description: FIG. 28C illustrates the use of single-Toxin Assays to measure the effects of Topoisomerase 1 inhibitors on cap-independent translation in MCF7 cells. Triplicate samples of the MCF7 mTRdm-fLuc subclone #27 were treated with varying concentrations (10 nM to 10 uM range) of the Topoisomerase 1 inhibitors; camptothecin, rubitecan, irinotecan and topotecan. The plate reader values were averaged and expressed as the ratio of treated to untreated samples (Fold Induction). The dashed line represents the level of translational response in untreated controls.
# FIG. 28D illustrates the use of a two-Toxin Combinatorial Assay on the MCF7 mTRdm-fLuc subclone #27 treated with 100 nM TPA plus varying doses (10 nM to 10 uM range) of the Topoisomerase 1 inhibitors. The plate reader values were averaged and expressed as the ratio of treated to untreated samples (Fold Induction). The dashed line represents the level of translational response in untreated samples. All four inhibitors acted synergistically with TPA to increase protein activity in the 10 nM two-Toxin assay.
# FIG. 28D illustrates the use of a two-Toxin dose response assay using varying dosages of the TopoI inhibitors in combination with the 100 nM TPA translational activator. All four inhibitors acted synergistically with TPA at low doses to increase protein translation. At concentrations higher than 100 nM, camptothecin, rubitecan, and topotecan antagonized the TPA response and reduced the fLUC expression.
structure (smiles),measurement,setting,value
CCC/C=C/C=C/C(=O)O[C@H]1/C(=C/C(=O)OC)C[C@H]2C[C@H]([C@@H](C)O)OC(=O)C[C@H](O)C[C@@H]3C[C@H](OC(C)=O)C(C)(C)[C@](O)(C[C@@H]4C/C(=C/C(=O)OC)C[C@H](/C=C/C(C)(C)[C@]1(O)O2)O4)O3 [Bryostatin 1],magnitude of reporter activity versus 100 nM TPA assay,[1]; 500 pM to 500 nM,never reached the fLuc activity level produced by the 100 nM TPA assay
same,dose giving maximal reporter level (translational peak),[1]; 6 hr,100 nM
same,magnitude of translational response versus 100 nM TPA tests,[2],never reached the fLuc activity produced in 100 nM TPA tests
same,dose giving peak fLuc protein activity,[2]; 6 hr,100 nM
COc1ccc(C[C@H]2NC[C@H](O)[C@H]2OC(C)=O)cc1 [anisomycin],reduction of reporter protein levels compared to the TPA single-Toxin assay,"[3]; 10 nM inhibitor + 100 nM TPA, CMV-fLUC #3 and mTRdm-fLUC #45",50-300%
same,low dose sufficient to reduce reporter protein levels below untreated control cells,[3]; single-Toxin,~25 nM
CC[C@@]1(O)C(=O)OCc2c1cc1n(c2=O)Cc2cc3ccccc3nc2-1 [camptothecin],dose at peak of fLuc protein expression,[4]; single-Toxin,~1 µM
same,effect on TPA-specific translational response,[4],acted synergistically with TPA to increase fLUC protein activity up to a 1 uM dose
same,effect on cap-independent translation,[5],exhibited reduced fLUC activity at higher doses (5 uM and 10 uM)
same,effect on TPA activity,[5],antagonized the TPA activity and exhibited reduced fLUC expression
C[C@@H]1C[C@@H]([C@H](O)CC2CC(=O)NC(=O)C2)C(=O)[C@@H](C)C1 [cycloheximide],reporter protein level versus untreated control,[3],little or no reduction below untreated control cell levels
CC[C@H]1CN2CCc3cc(OC)c(OC)cc3[C@@H]2C[C@@H]1C[C@H]1NCCc2cc(OC)c(OC)cc21 [emetine],reporter protein level versus untreated control,[3],little or no reduction below untreated control cell levels
same,low dose sufficient to reduce reporter protein levels below untreated control cells,[3]; single-Toxin,100 nM
CCc1c2c(nc3ccc(OC(=O)N4CCC(N5CCCCC5)CC4)cc13)-c1cc3c(c(=O)n1C2)COC(=O)[C@]3(O)CC [irinotecan],effect on cap-dependent translation,[4]; single-Toxin,neither topotecan or irinotecan significantly altered cap-dependent translation
same,effect on TPA-specific translational response,[4],did not produce any significant change in the TPA-specific translational response
same,effect on cap-independent translation,[5],constant amount of fLUC activity at all tested concentrations
same,effect on TPA activity,[5],displayed synergistic action with TPA and enhanced fLUC activity at all tested doses
COc1ccc(C[C@H](N)C(=O)N[C@H]2[C@@H](O)[C@H](n3cnc4c(N(C)C)ncnc43)O[C@@H]2CO)cc1 [puromycin],reporter protein level versus untreated control,[3],little or no reduction below untreated control cell levels
same,concentration required to reduce reporter protein levels to levels comparable to the other three inhibitors,"[3]; single-Toxin, cap-dependent and cap-independent",2.5 µM
same,dose required to correlate with the other inhibitors (translation arrested),"[3]; two-Toxin with 100 nM TPA, CMV-fLUC #3 subclone, cap-dependent",2.5 µM
same,concentration required to initially reduce protein synthesis below the TPA Single-Toxin assay level,"[3]; two-Toxin with 100 nM TPA, all three cell lines",250 nM
same,concentration needed to correlate with the other inhibitors (prevent new protein synthesis),"[3]; two-Toxin with 100 nM TPA, hTRdm-fLUC #13 and mTRdm-fLUC #45, cap-independent",25 µM
CC[C@@]1(O)C(=O)OCc2c1cc1n(c2=O)Cc2cc3c([N+](=O)[O-])cccc3nc2-1 [rubitecan],dose at peak of fLuc protein expression,[4]; single-Toxin,~1 µM
same,effect on TPA-specific translational response,[4],acted synergistically with TPA to increase fLUC protein activity up to a 1 uM dose
same,effect on cap-independent translation,[5],exhibited reduced fLUC activity at higher doses (5 uM and 10 uM)
same,effect on TPA activity,[5],antagonized the TPA activity and exhibited reduced fLUC expression
